Tested on: HER2+ cell lines
Assay: In vitro cell growth assays: drug combination effects (CellTiter-Glo cell viability)
Type: cell-based
Method: Cells (BT474-M3, NCI-N87, NCI-N87-PIK3CA(wt), NCI-N87-PIK3CA(H1047R), NCI-N87-PIK3CA(E454K), COLO-678, KYSE-410, ZR75-1, MDA-MB-361 or MDA-MB-175-VII) are seeded at 700 cells per 384-well plate in 10% FBS cell growth medium and treated with the five drugs, separately or in combination, at […], with and without 5 nM HRG-β1 pre-stimulation (for four hours). Cell viability was determined 72 hours later with CellTiter-Glo® luminescent cell viability assay (Promega).
This panel included cells harboring PI3KCA-activating mutations (both natural and engineered), PTEN deletions, and KRAS-activating mutations, as well as PI3K and MAPK-wild type cells. To clarify and summarize the drug-response relationships, multivariate regression models were parameterized for each cell line, simulating % cell growth inhibition as linear combinations of the five input drug concentrations. Regression coefficients for each drug were grouped by mutational background and the presence or absence of heregulin stimulation, and average values computed (FIG. 4B).

| Structure (SMILES) | sensitivity of PI3K-mutant cells to drug-containing regimens (PI3K-mutant cells (MDA-MB-361, ZR-75-1, and NCI-N87-PIK3CA)) | effect of HRG on sensitivity of cells to the drug (cell growth inhibition) (presence of 5 nM exogenous HRG, regardless of genetic background) | sensitivity of wild-type cells to drug-containing regimens (wild-type cells) |
| --- | --- | --- | --- |
| NC1(c2ccc(-c3nc4ccn5c(=O)[nH]nc5c4cc3-c3ccccc3)cc2)CCC1 [MK2206] | most sensitive | – | – |
| CS(=O)(=O)CCNCc1ccc(-c2ccc3ncnc(Nc4ccc(OCc5cccc(F)c5)c(Cl)c4)c3c2)o1 [lapatinib] | – | desensitizes | most sensitive |

— patent US20150361503A1, “METHODS FOR SELECTING THERAPEUTICS FOR TREATMENT OF HER2+ CANCERS” (Merrimack Pharmaceuticals, Inc., priority 2014, published 2015)
